Counter-ions that a name gives are not always drawn. Like-named read-outs stand apart in the source and are kept apart here.
Assays:
[1] = test system: SUM149PT breast cancer cell line; test: CellTiter Glo cell viability / ZIP synergy in BRCA1mut model; type: cell-based; details: single agent at the same low nM doses
Protocol: FIGS. 2A-2B are charts showing the ZIP synergy score matrix in a BRCA1mut model treated with gemcitabine at low-nanomolar concentrations (15 nM) synergizing with camonsertib 7.5 nM (2 days on (FIG. 2A) or 3 days on (FIG. 2B)). ZIP synergy scores greater than 10 indicate drug synergy and scores less than −10 indicates antagonism. Mean CTG cell viability data from 3 independent experiments were processed with SynergyFinder (https://synergyfinder.fimm.fi/; PMIDs: 35580060, 26949479). Dotted lines indicated doses exerting maximum synergy.
FIGS. 3A-3B show the synergy of gemcitabine with camonsertib in a BRCA1 mut model. […] FIG. 3B is a graph of the viability of the SUM149PT treated with the indicated compounds and schedules. Data (circles) from three independent experiments is provided with mean (bars)±SD. The P value calculated with an unpaired two-tailed Student's t-test. Cell viability was read out at day 8 with a CellTiter Glo (CTG) assay.
To assess the synergy between camonsertib and gemcitabine in a BRCA1-mutated cancer cell model in vitro, a SUM149PT breast cancer cell line was employed. The combination was administered at various dosing schedules—1, 2, or 3 day treatment with camonsertib combined with a single 4 h dose of gemcitabine (FIG. 3A).

[2] = test system: SUM149PT BRCA1 mutated xenograft; type: in vivo; details: single agents at low doses: camonsertib 10 mg/kg PO 3 days on/4 days off; gemcitabine 20 mg/kg QW; 28 days
Protocol: The relative tumor xenograft volume (FIG. 4A) and change in body weight in mice treated (FIG. 4B) is shown for mice treated with gemcitabine at 20 mg/kg QW on Day 1 and/or camonsertib at 10 mg/kg PO on different schedules weekly for 28 days. Results are expressed as mean±SEM, N=7/group in female NOD-SCID mice. Statistical differences were established by Student's T-test (GraphPad Prism v9) with Welch's correction; ns=not significant, *p<0.05, **p<0.01.
A xenograft model was employed to assess the effect of camonsertib in combination with gemcitabine on tumor formation in an animal model. Mice harboring established tumors were treated with a vehicle control, camonsertib (10 mg/kg once per day with 3 days on/4 days off), gemcitabine (20 mg/kg once per week), or a combination of both camonsertib (once per day selected from 3 days on/4 days off, 2 days on/5 days off, or 1 day on/6 days off) and gemcitabine (once per week) for 28 days.
Relative tumor xenograft volume of the mice treated with gemcitabine at 20 mg/kg QW on Day 1 and/or camonsertib at 10 mg/kg PO on different schedules weekly for 28 days is shown in FIG. 4A and the change in body weight is shown in FIG. 4B. Results are expressed as mean±SEM, N=7/group in female NOD-SCID mice. Statistical differences were established by Student's T-test (GraphPad Prism v9) with Welch's correction; ns=not significant, *p<0.05, **p<0.01.

[3] = maximum tolerated dose in mice; type: in vivo
[4] = humans, cited from earlier work

| SMILES | cell viability (CTG, day 8) [1] | anti-tumor activity (relative tumor xenograft volume) [2] | MTD ([3]; mouse, in vivo, read-out: MTD) | mean gemcitabine peak plasma concentration ([4]; 800 mg/m^2) | mean gemcitabine peak plasma concentration ([4]; 1000 mg/m^2) | MTD [3] |
| --- | --- | --- | --- | --- | --- | --- |
| Nc1ccn([C@@H]2O[C@H](CO)[C@@H](O)C2(F)F)c(=O)n1 [gemcitabine, 2-Deoxy-2,2-difluorocytidine hydrochloride] | only modest effect | reduced activity | 100 mg/kg | 24 µM | 32 µM |  |
| C[C@@H]1COCCN1c1cc([C@]2(O)C[C@H]3CC[C@@H](C2)O3)c2cnn(-c3cc[nH]n3)c2n1 [camonsertib, (1R,5S)-3-[6-[(3R)-3-methylmorpholin-4-yl]-1-(1H-pyrazol-5-yl)pyrazolo[3,4-b]pyridin-4-yl]-8-oxabicyclo[3.2.1]octan-3-ol] | only modest effect | reduced activity |  |  |  | 30 mg/kg |

Source: patent US20250090539A1, “COMBINATION TREATMENT OF CANCERS” (Repare Therapeutics Inc., priority 2023, published 2025)
